The target in one assay is T1, 26S proteasome (Oryctolagus cuniculus, UniProt G1T4Q9).
T1 sequence (G1T4Q9 1-263): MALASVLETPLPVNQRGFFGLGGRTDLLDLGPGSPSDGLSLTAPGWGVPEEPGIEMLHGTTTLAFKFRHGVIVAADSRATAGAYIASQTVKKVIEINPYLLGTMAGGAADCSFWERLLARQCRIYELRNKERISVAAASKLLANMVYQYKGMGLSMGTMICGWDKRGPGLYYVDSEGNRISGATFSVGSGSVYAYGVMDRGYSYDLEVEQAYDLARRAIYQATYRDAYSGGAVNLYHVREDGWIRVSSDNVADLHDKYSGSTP
In words: Inhibition of the 26S proteasome (kinetic experiments, Ki). The assay is classed as biochemical. The note with it: Rabbit muscle; substrate Suc-LLVY-AMC; [Mg:ATP] = 2 mM. The source says:
(§1) Tables I-III summarize results from kinetic experiments that measured the inhibition of the 20S and 26S proteasomes, as well as cathepsin B and calpain. In these tables, Ki values are reported, which are dissociation constants for the equilibrium that is established when enzyme and inhibitor interact to form the enzyme:inhibitor complex.
(§2) The substances and assay conditions are briefly summarized in the footnotes to Table I. MG 101 and MG 102, also known as Calpain Inhibitor I and II, were purchased from Calbiochem as catalogue products.

Assay [1] has as its target T2, 20S Proteasome (Oryctolagus cuniculus, UniProt G1T4Q9).
T2 sequence (G1T4Q9 1-263): T1 sequence (G1T4Q9 1-263)
Nature of the assay: Inhibition of the 20S proteasome (kinetic experiments, Ki). Particulars: Rabbit muscle, SDS-activated; substrate Suc-LLVY-AMC. On the set-up: Ki 20 S; substrate Suc-LLVY-AMC. The assay is classed as biochemical, Rabbit.
Source text: as §1, §2
(§3) Table V summarizes data for the inhibition of the 20S proteasome by various tripeptide aldehyde inhibitors.

Assay [2] concerns the target calpain, 80 kD catalytic subunit. Nature of the assay: Inhibition of calpain (Ki). The format is biochemical. Particulars: Rabbit muscle, substrate Suc-LLVY-AMC, [CaCl2] = 1 mM, [DTT] = 2 mM, pH 7.8, 20° C.
Source text: as §1

Another assay concerns the target T3, cathepsin B (Bos taurus, UniProt P07688).
T3 construct: Bovine spleen; Substrate: Z-RR-AMC; from tissue; host or cells: bovine spleen
Nature of the assay: Inhibition of cathepsin B (Ki). The format is biochemical. The note with it: Bovine spleen; substrate Z-RR-AMC; [DTT] = 2 mM, [EDTA] = 5 mM, pH 5.5, 37° C.; read-out: Ki Cat B.
Source text: as §1

For assay [3], the target named is T4, 20S proteasome (Oryctolagus cuniculus, UniProt G1T4Q9).
T4 sequence (G1T4Q9 60-263): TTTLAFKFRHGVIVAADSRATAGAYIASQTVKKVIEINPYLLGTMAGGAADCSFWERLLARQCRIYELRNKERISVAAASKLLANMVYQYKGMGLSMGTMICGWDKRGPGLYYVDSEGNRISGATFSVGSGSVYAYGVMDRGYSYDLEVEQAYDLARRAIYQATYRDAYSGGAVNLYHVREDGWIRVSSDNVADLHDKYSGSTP
In words: Inhibition of the 20S proteasome (kinetic experiments, Ki). The assay is classed as biochemical, Rabbit. Particulars: Table V, miscellaneous tripeptide aldehydes; 20S proteasome.
Source text: as §1, §2, §3

Non-standard residues stand in square brackets, D forms with d. Residues, ends and D or L forms follow the SMILES beside them. ξ: configuration not given here. *: point of attachment. Phe(4-NO2) = N[C@@H](Cc1ccc([N+](=O)[O-])cc1)C(=O)O; Tyr(3,5-Br2) = N[C@@H](Cc1cc(Br)c(O)c(Br)c1)C(=O)O; Tyr(3,5-I2) = N[C@@H](Cc1cc(I)c(O)c(I)c1)C(=O)O; Phe(4-Cl) = N[C@@H](Cc1ccc(Cl)cc1)C(=O)O; 1Nal = N[C@@H](Cc1cccc2ccccc12)C(=O)O; 2Nal = N[C@@H](Cc1ccc2ccccc2c1)C(=O)O; hPhe = N[C@@H](CCc1ccccc1)C(=O)O; tBuAla = CC(C)(C)C[C@H](N)C(=O)O; Cha = N[C@@H](CC1CCCCC1)C(=O)O; Ile(3ξ) = CCC(C)[C@H](N)C(=O)O; AllylGly = C=CC[C@H](N)C(=O)O; Phg = N[C@H](C(=O)O)c1ccccc1; Nle = CCCC[C@H](N)C(=O)O; Pra = C#CC[C@H](N)C(=O)O; Nva = CCC[C@H](N)C(=O)O; Cbz = O=C(OCc1ccccc1)*; Boc = CC(C)(C)OC(=O)*; Bn = c1ccc(C*)cc1

One may read the Ki as a measure of affinity in units of concentration, obtained from inhibition or displacement.

With `CSCC[C@@H](C=O)NC(=O)[C@H](CC(C)C)NC(=O)[C@H](CC(C)C)NC(C)=O` [MG 102, reference compound] (Ac-Leu-Leu-Met-aldehyde), the Ki at 26S proteasome was determined as 28000 nM; on 20S Proteasome [1], 1000 nM; in assay [2], 120 nM; on cathepsin B, 94 nM.

On 20S Proteasome [1], `CCCC[C@@H](C=O)NC(=O)[C@H](CC(C)C)NC(=O)OCc1ccccc1` [MG 105, Z-Leu-Nle-H, reference compound] displayed a Ki of 15000 nM.

For the compound `CC(C)C[C@H](NC(=O)OCc1ccccc1)C(=O)N[C@@H](CC(C)C)C(=O)N[C@@H](C)C=O` [MG 111] (Cbz-Leu-Leu-Ala-aldehyde), the Ki at 26S proteasome came out at 690 nM; at 20S Proteasome [1] it was 210 nM; in assay [2], 11 nM; on cathepsin B, 6 nM.

Consider `COC(=O)C(=O)[C@H](Cc1ccccc1)NC(=O)[C@H](CC(C)C)NC(=O)[C@H](CC(C)C)NC(=O)OCc1ccccc1` [MG 113, Z-Leu-Leu-Phe-C(O)—OMe], for which the Ki is 1300 nM at 26S proteasome, 690 nM on 20S Proteasome [1], 45 nM in assay [2] and below 4 nM on cathepsin B.

For `CCCC[C@@H](C=O)NC(=O)[C@H](CC(C)C)NC(=O)[C@H](CC(C)C)NC(=O)OCc1ccccc1` [MG 114, Z-Leu-Leu-Nle-H] (Cbz-Leu-Leu-[Nle]-aldehyde), the inhibitory constant (Ki) on 26S proteasome was determined as 120 nM; at 20S Proteasome [1], 47 nM; in assay [2], 12 nM; at cathepsin B, 7 nM.

For `CCC[C@@H](C=O)NC(=O)[C@H](CC(C)C)NC(=O)[C@H](CC(C)C)NC(=O)OCc1ccccc1` [MG 115, Z-Leu-Leu-Nva-H] (Cbz-Leu-Leu-[Nva]-aldehyde), the Ki at 26S proteasome is 78 nM; on 20S Proteasome [1], 21 nM; in assay [2], 10 nM; on cathepsin B, 10 nM.

As to `CC(C)C[C@H](NC(=O)OCc1ccccc1)C(=O)N[C@@H](CC(C)C)C(=O)NCC=O` [MG 118] (Cbz-Leu-Leu-Gly-aldehyde), the Ki is 28000 nM on 26S proteasome, 3800 nM on 20S Proteasome [1], 120 nM in assay [2] and 94 nM on cathepsin B.

As for `CC(C)C[C@H](NC(=O)OCc1ccccc1)C(=O)N[C@@H](CC(C)C)C(=O)N[C@H](C=O)CCc1ccccc1` [MG 124] (Cbz-Leu-Leu-[hPhe]-aldehyde), at 20S proteasome [3], affinity was put at a Ki of 59 nM.

In turn, `CC(C)C[C@H](NC(=O)OCc1ccccc1)C(=O)N[C@@H](CC(C)C)C(=O)N[C@H](C=O)CC1CCCCC1` [MG 129] (Cbz-Leu-Leu-[Cha]-aldehyde) returned a Ki at 20S proteasome [3] of 60 nM.

On 20S proteasome [3], `CC(C)C[C@H](NC(=O)OCc1ccccc1)C(=O)N[C@@H](CC(C)C)C(=O)N[C@H](C=O)Cc1ccc(O)cc1` [MG 131] (Cbz-Leu-Leu-Tyr-aldehyde) gave a Ki of 6 nM.

Consider `CC(C)C[C@@H](C=O)NC(=O)[C@H](CC(C)C)NC(=O)[C@H](CC(C)C)NC(=O)OCc1ccccc1` [MG 132] (Cbz-Leu-Leu-Leu-aldehyde), for which the Ki at 20S proteasome [3] was 9 nM.

As to `CC(C)C[C@H](NC(=O)OCc1ccccc1)C(=O)N[C@@H](CC(C)C)C(=O)N[C@H](C=O)c1ccccc1` [MG 133] (Cbz-Leu-Leu-[Phg]-aldehyde), on 20S proteasome [3], the Ki came to 470 nM.

Turning to `CCC(C)[C@@H](C=O)NC(=O)[C@H](CC(C)C)NC(=O)[C@H](CC(C)C)NC(=O)OCc1ccccc1` (stereo partly drawn) [MG 134] (Cbz-Leu-Leu-[Ile(3ξ)]-aldehyde), affinity at 20S proteasome [3] was put at a Ki of 100 nM.

For the compound `CC(C)C[C@H](NC(=O)OCc1ccccc1)C(=O)N[C@@H](CC(C)C)C(=O)N[C@H](C=O)Cc1ccc([N+](=O)[O-])cc1` [MG 135] (Cbz-Leu-Leu-[Phe(4-NO2)]-aldehyde), on 20S proteasome [3], the Ki came to 290 nM.

Consider `CC(C)C[C@H](NC(=O)OCc1ccccc1)C(=O)N[C@@H](CC(C)C)C(=O)N[C@H](C=O)CC(C)(C)C` [MG 136] (Cbz-Leu-Leu-[tBuAla]-aldehyde), for which the affinity at 20S proteasome [3] corresponds to a Ki of 1000 nM.

`C=CC[C@@H](C=O)NC(=O)[C@H](CC(C)C)NC(=O)[C@H](CC(C)C)NC(=O)OCc1ccccc1` [MG 139] (Cbz-Leu-Leu-[AllylGly]-aldehyde) gave an inhibition constant (Ki) at 20S proteasome [3] of 20 nM.

Consider `C#CC[C@@H](C=O)NC(=O)[C@H](CC(C)C)NC(=O)[C@H](CC(C)C)NC(=O)OCc1ccccc1` [MG 140] (Cbz-Leu-Leu-[Pra]-aldehyde), for which, on 20S proteasome [3], the Ki was 28 nM.

`CCC[C@@H](C=O)NC(=O)[C@H](CC(C)C)NC(=O)[C@H](CC1CCCCC1)NC(=O)OCc1ccccc1` [MG 141] (Cbz-[Cha]-Leu-[Nva]-aldehyde) registered a Ki at 20S proteasome [3] of 50 nM.

On 20S proteasome [3], `CCC[C@@H](C=O)NC(=O)[C@H](CC(C)C)NC(=O)[C@H](Cc1cccc2ccccc12)NC(=O)OCc1ccccc1` [MG 142] (Cbz-[1Nal]-Leu-[Nva]-aldehyde) had a Ki of 0.3 nM.

At 20S proteasome [3], `CC(C)C[C@@H](C=O)NC(=O)[C@H](CC(C)C)NC(=O)[C@H](Cc1cccc2ccccc12)NC(=O)OCc1ccccc1` [MG 150] (Cbz-[1Nal]-Leu-Leu-aldehyde) came in with an inhibitory constant (Ki) of 0.4 nM.

On to `CC(C)C[C@H](NC(=O)OCc1ccccc1)C(=O)N[C@@H](CC(C)C)C(=O)N[C@H](C=O)Cc1c[nH]c2ccccc12` [MG 151] (Cbz-Leu-Leu-Trp-aldehyde), for which, on 20S proteasome [3], the Ki turned out to be 10 nM.

`COc1ccc(C[C@@H](C=O)NC(=O)[C@H](CC(C)C)NC(=O)[C@H](CC(C)C)NC(=O)OCc2ccccc2)cc1` [MG 152] (Cbz-Leu-Leu-Tyr(Me)-aldehyde) showed a Ki at 20S proteasome [3] of 6 nM.

As for `CC(C)C[C@H](NC(=O)OCc1ccccc1)C(=O)N[C@@H](CC(C)C)C(=O)N[C@H](C=O)Cc1ccc(OCc2ccccc2)cc1` [MG 153] (Cbz-Leu-Leu-Tyr(Bn)-aldehyde), the affinity at 20S proteasome [3], expressed as Ki, was 280 nM.

On 20S proteasome [3], `CC(=O)N[C@@H](CC(C)C)C(=O)N[C@@H](CC(C)C)C(=O)N[C@H](C=O)CC(C)C` [MG 154] (Ac-Leu-Leu-Leu-aldehyde) registered an inhibition constant Ki of 75 nM.

Regarding `CC(C)C[C@@H](C=O)NC(=O)[C@H](CC(C)C)NC(=O)[C@H](CC(C)C)NC(=O)OC(C)(C)C` [MG 155] (Boc-Leu-Leu-Leu-aldehyde), on 20S proteasome [3], the Ki was determined as 54 nM.

With `CC(C)C[C@H](NC(=O)OCc1ccccc1)C(=O)N[C@@H](CC(C)C)C(=O)N[C@H](C=O)Cc1ccc(Cl)cc1` [MG 158] (Cbz-Leu-Leu-[Phe(4-Cl)]-aldehyde), at 20S proteasome [3], affinity was put at a Ki of 7 nM.

`CC(C)C[C@H](NC(=O)OCc1ccccc1)C(=O)N[C@@H](CC(C)C)C(=O)N[C@H](C=O)Cc1cc(Br)c(O)c(Br)c1` [MG 160] (Cbz-Leu-Leu-[Tyr(3,5-Br2)]-aldehyde): the Ki on 20S proteasome [3] was determined as 51 nM.

At 20S proteasome [3], `CC(C)C[C@H](NC(=O)OCc1ccccc1)C(=O)N[C@@H](CC(C)C)C(=O)N[C@H](C=O)Cc1cc(I)c(O)c(I)c1` [MG 161] (Cbz-Leu-Leu-[Tyr(3,5-I2)]-aldehyde) registered a Ki of 64 nM.

Turning to `CC(C)C[C@@H](C=O)NC(=O)[C@H](CC(C)C)NC(=O)[C@H](Cc1ccc2ccccc2c1)NC(=O)OCc1ccccc1` [MG 165] (Cbz-[2Nal]-Leu-Leu-aldehyde), on 20S proteasome [3], the Ki amounted to 0.24 nM.

For the compound `CC(C)C[C@@H](C=O)NC(=O)[C@H](Cc1cccc2ccccc12)NC(=O)[C@H](Cc1cccc2ccccc12)NC(=O)OCc1ccccc1` [MG 166] (Cbz-[1Nal]-[1Nal]-Leu-aldehyde), at 20S proteasome [3], the affinity, expressed as Ki, was 0.035 nM.

`CC(C)C[C@@H](C=O)NC(=O)[C@H](Cc1cccc2ccccc12)NC(=O)[C@H](Cc1ccc2ccccc2c1)NC(=O)OCc1ccccc1` [MG 167] (Cbz-[2Nal]-[1Nal]-Leu-aldehyde) yielded a Ki on 20S proteasome [3] of 0.015 nM.

`CC(C)C[C@@H](C=O)NC(=O)[C@H](C)NC(=O)[C@H](Cc1cccc2ccccc12)NC(=O)OCc1ccccc1` [MG 168] (Cbz-[1Nal]-Ala-Leu-aldehyde) gave a Ki at 20S proteasome [3] of 0.49 nM.
